Source: patent publication US6586000B2, “Hydroxide-releasing agents as skin permeation enhancers” (Dermatrends, Inc., priority 1999, dated 2003)

Assay: In vitro permeation of oxytocin solution through NaOH-pretreated skin, Franz-type diffusion cells
Format: in vitro ADME, human
Experimental: (§1) The volume of receiver solution was 8 ml. […] Eighteen diffusion cells were used in this study. A 2% NaOH aqueous solution (50 μl) was introduced to the donor chambers of nine cells (cells #1 to 9) and a 4% NaOH aqueous solution (50 μl) was introduced to the donor chambers of the other nine cells (cells #10 to 18). Once the NaOH solution is applied, the donor chamber was covered with parafilm.
After 5 hours, the NaOH solution was washed away from the skin for 3 cells (cells #1 to 3) that were treated with 2% NaOH solution and 3 cells (cells #10 to 12) that were treated with 4% NaOH solution. […] After 24 hours, the NaOH solution was washed away from the skin for 3 cells (cells #7 to 9) that were treated with 2% NaOH solution and 3 cells (cells #16 to 18) that were treated with 4% NaOH solution. To wash away the NaOH solution, the receiving fluid was removed and replaced with fresh DI water. This was done twice. DI water was added to the donor chamber to dilute the NaOH solution and then the donor solution was removed. This was repeated several times.
After the NaOH solution was washed away from the skin, the solution in the donor chamber was completely removed and replaced by 50 μl of an oxytocin solution. Once the oxytocin solution is applied, the donor chamber was covered with parafilm.
The cells were filled with DI water as a receiver solution. The DI water had been degased to remove air bubbles. […] The samples taken were analyzed by HPLC for the concentration of oxytocin in the receiver solution. The cumulative amount of oxytocin across human cadaver skin was calculated using the measured oxytocin concentrations in the receiver solutions for each time point, which were listed in Table 46.
as §1, with “0.25%” for “2%”, “A 1.0%” for “a 4%”
After 5 hours, the NaOH solution was washed away from the skin for 3 cells (cells #1 to 3) that were treated with […] and 3 cells (cells #10 to 12) that were treated with 1.0% NaOH solution. After 11 hours, the NaOH solution was washed away from the skin for 3 cells (cells #4 to 6) that were treated with 0.25% NaOH solution and 3 cells (cells #13 to 15) that were treated with 1.0% NaOH solution. After 24 hours, the NaOH solution was washed away from the skin for 3 cells (cells #7 to 9) that were treated with 0.25% NaOH solution and 3 cells (cells #16 to 18) that were treated with 1.0% NaOH solution. To wash away the NaOH solution, the receiving fluid was removed and replaced with fresh DI water. This was done twice. DI water was added to the donor chamber to dilute the NaOH solution and then the donor solution was removed. This was repeated several times until the pH of donor solution was less than 8.
The cells were filled with DI water as a receiver solution. The DI water has been degased to remove air bubbles. […] The cumulative amount of oxytocin across human cadaver skin was calculated using the measured oxytocin concentrations in the receiver solutions for each time point, which were listed in Table 48.

Cumulative Amount of Oxytocin Permeated Across Human Cadaver Skin (skin pretreated by 1.0% NaOH for 5 hr, 4.25 hours): 0.45 μg/cm^2 | Cumulative Amount of Oxytocin Permeated Across Human Cadaver Skin (skin pretreated by 1.0% NaOH for 5 hr, 24 hours): 0.97 μg/cm^2 | Cumulative Amount of Oxytocin Permeated Across Human Cadaver Skin (skin pretreated by 1.0% NaOH for 5 hr, […]): 0.97 μg/cm^2 | Cumulative Amount of Oxytocin Permeated Across Human Cadaver Skin (skin pretreated by 1.0% NaOH for 11 hr, 4.25 hours): 53.42 μg/cm^2 | Cumulative Amount of Oxytocin Permeated Across Human Cadaver Skin (skin pretreated by 1.0% NaOH for 11 hr, 24 hours): 75.36 μg/cm^2 | Cumulative Amount of Oxytocin Permeated Across Human Cadaver Skin (skin pretreated by 1.0% NaOH for 11 hr, […]): 67.97 μg/cm^2 | Cumulative Amount of Oxytocin Permeated Across Human Cadaver Skin (skin pretreated by 1.0% NaOH for 24 hr, 4.25 hours): 13.23 μg/cm^2 | Cumulative Amount of Oxytocin Permeated Across Human Cadaver Skin (skin pretreated by 1.0% NaOH for 24 hr, 24 hours): 30.97 μg/cm^2 | Cumulative Amount of Oxytocin Permeated Across Human Cadaver Skin (skin pretreated by 1.0% NaOH for 24 hr, […]): 21.06 μg/cm^2 | Cumulative Amount of Oxytocin Permeated Across Human Cadaver Skin (skin pretreated by 4% NaOH for 5 hr, 5 hours): 118.95 μg/cm^2 | Cumulative Amount of Oxytocin Permeated Across Human Cadaver Skin (skin pretreated by 4% NaOH for 5 hr, 15 hours): 200.66 μg/cm^2 | Cumulative Amount of Oxytocin Permeated Across Human Cadaver Skin (skin pretreated by 4% NaOH for 5 hr, 24 hours): 225.52 μg/cm^2 | Cumulative Amount of Oxytocin Permeated Across Human Cadaver Skin (skin pretreated by 4% NaOH for 15 hr, 5 hours): 202.28 μg/cm^2 | Cumulative Amount of Oxytocin Permeated Across Human Cadaver Skin (skin pretreated by 4% NaOH for 15 hr, 15 hours): 222.45 μg/cm^2 | Cumulative Amount of Oxytocin Permeated Across Human Cadaver Skin (skin pretreated by 4% NaOH for 15 hr, 24 hours): 231.58 μg/cm^2 | Cumulative Amount of Oxytocin Permeated Across Human Cadaver Skin (skin pretreated by 4% NaOH for 24 hr, 5 hours): 193.82 μg/cm^2 | Cumulative Amount of Oxytocin Permeated Across Human Cadaver Skin (skin pretreated by 4% NaOH for 24 hr, 15 hours): 232.72 μg/cm^2 | Cumulative Amount of Oxytocin Permeated Across Human Cadaver Skin (skin pretreated by 4% NaOH for 24 hr, 24 hours): 236.80 μg/cm^2
Structure (SMILES): CC[C@H](C)[C@@H]1NC(=O)[C@H](Cc2ccc(O)cc2)NC(=O)[C@@H](N)CSSC[C@@H](C(=O)N2CCC[C@H]2C(=O)N[C@@H](CC(C)C)C(=O)NCC(N)=O)NC(=O)[C@H](CC(N)=O)NC(=O)[C@H](CCC(N)=O)NC1=O [Oxytocin, oxytocin]
